Test results taken from patent US10781200B2, “Therapeutic inhibitory compounds” (Attune Pharmaceuticals, Inc., priority 2016, dated 2020).

Assay: Pharmacokinetic study, oral exposure in rats
Type: in vivo
Details: male Sprague-Dawley rats, single oral dose 10 mg/kg, plasma
Protocol: Pharmacokinetic studies of select compounds were performed to assess the pharmacokinetic properties. Male Sprague-Dawley rats were administered a single oral dose of the test compound at 10 mg/kg (dose concentration: 2 mg/mL, dose volume: 5 ml/kg) via oral gavage. Blood samples were collected via jugular vein at pre-dose, post-dose 5 min, 15 min, 30 min, 1 h, 2 h, 4 h, 6 h, 8 h, 10 h and 24 h, and centrifuged (8000 rpm for 6 minutes at 2-8° C.). The resulting plasma fractions were analyzed by LC/MS/MS to determine the concentration of the test compound.

Structure (SMILES)	AUC
Cc1cc(N)nc(C)c1CNC(=O)c1c[nH]c(Cc2ccc3ncc(Cl)cc3c2)n1 [Example 5, N-((6-amino-2,4-dimethylpyridin-3-yl)methyl)-2-((3-chloroquinolin-6-yl)methyl)-1H-imidazole-5-carboxamide]	BLQ
Cc1cc(N)nc(C)c1CNC(=O)c1cn(Cc2ccc3ncc(Cl)cc3c2)c2ccncc12 [Example 35, N-((6-amino-2,4-dimethylpyridin-3-yl)methyl)-1-((3-chloroquinolin-6-yl)methyl)-1H-pyrrolo[3,2-c]pyridine-3-carboxamide]	BLQ
Cc1cc(N)nc(C)c1CNC(=O)c1cn(Cc2ccc3ncc(Cl)cc3c2)c2cnc(C#N)cc12 [Example 134, N-((6-amino-2,4-dimethylpyridin-3-yl)methyl)-1-((3-chloroquinolin-6-yl)methyl)-5-cyano-1H-pyrrolo[2,3-c]pyridine-3-carboxamide]	BLQ
